For data set [1] the following is noted: cited from earlier work; for solubility in alcohol: alcohol / ethanol.
In data set [2] the test system is plasma carrier proteins. Particulars: cited from earlier work.
The conditions of data set [3]: cited from earlier work; for distribution volume: in vivo.
Data set [4] has as its system obese, diabetic patients. To be noted: continuous perfusion, 6 weeks; cited from earlier work.
Data set [5] can be described thus: Complete dissolution in hydroalcoholic solution according to the invention. Format: physicochemical. Particulars: approximately 50° hydroalcoholic solution. The source says: The term “dissolved in a stable and a complete manner” means a state of dissolution restoring the active principle to the molecular state, slightly ionized in its dissolving medium, the state of dissolution preventing any possibility of inopportune recrystallization.

For data set [6] the following is noted: oral; cited from earlier work.

Like-named read-outs stand apart in the source and are kept apart here.

For orientation: bioavailability means the share of a dose that reaches the circulation, judged against a reference dose that is usually intravenous. As to `N[C@@H](CC(=O)N1CCn2c(nnc2C(F)(F)F)C1)Cc1cc(F)c(F)cc1F` [Sitagliptin, sitagliptin], in data set [1], the “solubility in organic solvents” value is “soluble in water and certain organic solvents”; the solubility in water result was “soluble in water”. Moreover, the “binding to plasma proteins (in words)” value in data set [2] was “bound to plasma proteins”. Further, the bioavailability in data set [3] (oral) is reported as about 87%. Besides, the “mean distribution volume in the organism” value in data set [3] (single dose of 100 mg intravenous) is given as “approximately 198 L”.
Consider glucagon-like peptide-1 [GLP-1], for which, in data set [4], the “reduction in postprandial glycemia” value is reported as 5.5 mM and the “reduction of hemoglobin HbAlC” value is given as 1.3%.
For the compound `COc1ccc(Cl)cc1C(=O)NCCc1ccc(S(=O)(=O)NC(=O)NC2CCCCC2)cc1` [glibenclamide], in data set [1], the solubility in alcohol result is reported as “slightly soluble in ethanol” and the solubility in water result is “practically insoluble in water”. Also, the “complete dissolution, amount” value in data set [5] is given as 1 mg per 1 mL.
`N#C[C@@H]1CCCN1C(=O)CNC12CC3CC(CC(O)(C3)C1)C2` [Vildagliptin, vildagliptin]: in data set [1], the “solubility in organic solvents” value was “soluble in water and organic solvents”; the solubility in water entry is given as “soluble in water”. Also, the bioavailability result in data set [3] (oral) is “approximately 85%”.
With `CCOc1cc(CC(=O)N[C@@H](CC(C)C)c2ccccc2N2CCCCC2)ccc1C(=O)O` [Repaglinide, repaglinide], in data set [6], the “inter-individual variability in plasma concentration” value is recorded as 60%, the “intra-individual variability in plasma concentration” value was 35% and the “onset of insulinotropic response after taking” value is on record as “approximately 30 min”.
Consider `CN(C)C(=N)N=C(N)N` [Metformin, metformin], for which the “binding to plasma proteins (in words)” value in data set [2] is “not bound to plasma proteins”.
As for `Cc1ccc(S(=O)(=O)NC(=O)NN2CC3CCCC3C2)cc1` (stereo not drawn) [Gliclazide, gliclazide], the solubility in alcohol entry in data set [1] is “slightly soluble in alcohol”. Also, the solubility in water entry in data set [1] is “insoluble in water”. The “complete dissolution, amount” value in data set [5] worked out at 3.5 mg for 0.75 mL. For the same compound, the “binding to plasma carrier proteins” value in data set [2] is reported as 95%. Further, the distribution volume entry in data set [3] is “approximately 30 L”; in data set [3] (listed as gliclazide) it was 30 L. The “hepatic metabolism (in words)” value in data set [3] (oral) is reported as “extensively metabolized by the first hepatic passage”.

These data come from patent US9161910B2, “Method and pharmaceutical compositions for trans-buccal mucosa treatment of postprandial hyperglycaemia in type II diabetes” (priority 2009, dated 2015).
